Experimental data from PMC5283653, “Structural aspects of nucleotide ligand binding by a bacterial 2H phosphoesterase” (PLoS ONE, 2017).
Read-outs that look alike come from different tables or passages of the source. One block for each molecule: values may come before it.

Legend:
LigT [1] = biological target: T1, LigT (Escherichia coli, UniProt Z9E1N8ZL79); assay: isothermal titration calorimetry; co-crystal structure; format: binding; settings: 10 mM HEPES pH 7.5, 0.2 M NaCl, 0.1 mM TCEP, 25 °C, active site, read-out: dissociation constant
T1 construct: N-terminal His6 tag with TEV site, tag cut with TEV protease; expressed in E. coli BL21(DE3); 20 kDa; monomer in solution

LigT [2] = biological target: T1, LigT; assay: turnover to […]′-AMP seen in crystal; format: biochemical; settings: 0.1 M Tris-HCl pH 7.4-7.5, 0.2 M MgCl2, PEG 8000; 5 mM ligand

Structure (SMILES): Nc1ncnc2c1ncn2[C@@H]1O[C@H](CO)[C@@H](O)[C@H]1OP(=O)(O)O [2′-AMP]
Kd (LigT [1]; crystal grown with 2′,3′-cAMP): 140 µM

Structure (SMILES): Nc1ncnc2c1ncn2[C@@H]1O[C@H](CO)[C@H]2OP(=O)(O)O[C@H]21 [2′,3′-cAMP]
turnover to 2′-AMP seen in crystal (LigT [2]): the reaction product is bound in the crystals grown in the presence of the substrate

Continued, values first:

Kd (LigT [1]; second crystal form 5LDP): 70 µM
Structure (SMILES): Nc1ncnc2c1ncn2[C@@H]1O[C@H](COP(=O)(O)OP(=O)(O)OP(=O)(O)O)[C@@H](O)[C@H]1O [ATP]

Kd (LigT [1]; product analogue): 40 µM
Structure (SMILES): NC(=O)c1ccc[n+]([C@@H]2O[C@H](COP(=O)(O)OP(=O)(O)OC[C@H]3O[C@@H](n4cnc5c(N)ncnc54)[C@H](OP(=O)(O)O)[C@@H]3O)[C@@H](O)[C@H]2O)c1 [NADP^+]

Kd (LigT [1]): 180 µM
Structure (SMILES): Nc1ncnc2c1ncn2[C@@H]1O[C@H](CO)[C@@H](OP(=O)(O)O)[C@H]1O [3′-AMP]
